Experimental data published in ChEMBL document CHEMBL5360581, “Discovery of a novel dual functional phenylpyrazole-styryl hybrid that induces apoptotic and autophagic cell death in bladder cancer cells” (Eur J Med Chem, 2023).
Calls of active or inactive are those of the source. The calls are words filed in the database; no cut-off is given here.

Test system: SW-620
Experiment: Antiproliferative activity against human SW620 cells assessed as reduction in cell viability at 20 uM measured for 72 hrs by MTT assay
Assay type: functional, cell-based
Conditions: not given

| Compound | Activity |
| --- | --- |
| Oc1ccc(Cl)cc1-c1cc(/C=C/c2ccccc2Cl)nn1-c1ccccc1 | Active |
| Oc1ccc(Cl)cc1-c1cc(/C=C/c2ccc(Cl)cc2)nn1-c1ccccc1 | Active |
| Oc1ccccc1-c1cc(/C=C/c2cccc(Cl)c2)nn1-c1ccccc1 | Active |
| Oc1ccccc1-c1cc(/C=C/c2ccc(Cl)cc2)nn1-c1ccccc1 | Active |

Test system: A549
Experiment: Antiproliferative activity against human A549 cells assessed as reduction in cell viability at 20 uM measured for 72 hrs by MTT assay
Assay type: functional, cell-based
Conditions: not given

| Compound | Activity |
| --- | --- |
| Oc1ccc(Cl)cc1-c1cc(/C=C/c2ccccc2Cl)nn1-c1ccccc1 | Active |
| Oc1ccc(Cl)cc1-c1cc(/C=C/c2ccc(Cl)cc2)nn1-c1ccccc1 | Active |
| Oc1ccccc1-c1cc(/C=C/c2cccc(Cl)c2)nn1-c1ccccc1 | Active |
| Oc1ccccc1-c1cc(/C=C/c2ccc(Cl)cc2)nn1-c1ccccc1 | Active |

Test system: EJ-28
Experiment: Antiproliferative activity against human EJ-28 cells assessed as reduction in cell viability at 20 uM measured for 72 hrs by MTT assay
Assay type: functional, cell-based
Conditions: not given

| Compound | Activity |
| --- | --- |
| Oc1ccc(Cl)cc1-c1cc(/C=C/c2ccccc2Cl)nn1-c1ccccc1 | Active |
| Oc1ccc(Cl)cc1-c1cc(/C=C/c2ccc(Cl)cc2)nn1-c1ccccc1 | Active |
| Oc1ccccc1-c1cc(/C=C/c2cccc(Cl)c2)nn1-c1ccccc1 | Active |
| Oc1ccccc1-c1cc(/C=C/c2ccc(Cl)cc2)nn1-c1ccccc1 | Active |

Test system: HT-1080
Experiment: Antiproliferative activity against human HT-1080 cells assessed as reduction in cell viability at 20 uM measured for 72 hrs by MTT assay
Assay type: functional, cell-based
Conditions: not given

| Compound | Activity |
| --- | --- |
| Oc1ccc(Cl)cc1-c1cc(/C=C/c2ccccc2Cl)nn1-c1ccccc1 | Active |
| Oc1ccc(Cl)cc1-c1cc(/C=C/c2ccc(Cl)cc2)nn1-c1ccccc1 | Active |
| Oc1ccccc1-c1cc(/C=C/c2cccc(Cl)c2)nn1-c1ccccc1 | Active |
| Oc1ccccc1-c1cc(/C=C/c2ccc(Cl)cc2)nn1-c1ccccc1 | Active |

Test system: MCF7
Experiment: Antiproliferative activity against human MCF7 cells assessed as reduction in cell viability at 20 uM measured for 72 hrs by MTT assay
Assay type: functional, cell-based
Conditions: not given

| Compound | Activity |
| --- | --- |
| Oc1ccc(Cl)cc1-c1cc(/C=C/c2ccccc2Cl)nn1-c1ccccc1 | Active |
| Oc1ccc(Cl)cc1-c1cc(/C=C/c2ccc(Cl)cc2)nn1-c1ccccc1 | Active |
| Oc1ccccc1-c1cc(/C=C/c2cccc(Cl)c2)nn1-c1ccccc1 | Active |
| Oc1ccccc1-c1cc(/C=C/c2ccc(Cl)cc2)nn1-c1ccccc1 | Active |

Test system: SW-620
Experiment: Cytotoxicity against human SW620 cells assessed inhibition of cell growth incubated for 72 hrs by MTT assay
Assay type: functional, cell-based
Conditions: SW-620, 72 h

| Compound | IC50 |
| --- | --- |
| Oc1ccc(Cl)cc1-c1cc(/C=C/c2ccccc2Cl)nn1-c1ccccc1 | 9.5 µM |
| Oc1ccc(Cl)cc1-c1cc(/C=C/c2ccc(Cl)cc2)nn1-c1ccccc1 | 16.6 µM |
| Oc1ccccc1-c1cc(/C=C/c2cccc(Cl)c2)nn1-c1ccccc1 | 11.6 µM |
| Oc1ccccc1-c1cc(/C=C/c2ccc(Cl)cc2)nn1-c1ccccc1 | 16.5 µM |

Test system: A549
Experiment: Cytotoxicity against human A549 cells assessed inhibition of cell growth incubated for 72 hrs by MTT assay
Assay type: functional, cell-based
Conditions: A549, 72 h

| Compound | IC50 |
| --- | --- |
| Oc1ccc(Cl)cc1-c1cc(/C=C/c2ccccc2Cl)nn1-c1ccccc1 | 13.2 µM |
| Oc1ccc(Cl)cc1-c1cc(/C=C/c2ccc(Cl)cc2)nn1-c1ccccc1 | 21.5 µM |
| Oc1ccccc1-c1cc(/C=C/c2cccc(Cl)c2)nn1-c1ccccc1 | 24.3 µM |
| Oc1ccccc1-c1cc(/C=C/c2ccc(Cl)cc2)nn1-c1ccccc1 | 26.3 µM |

Test system: EJ-28
Experiment: Cytotoxicity against human EJ-28 cells assessed inhibition of cell growth incubated for 72 hrs by MTT assay
Assay type: functional, cell-based
Conditions: EJ-28, 72 h

| Compound | IC50 |
| --- | --- |
| Oc1ccc(Cl)cc1-c1cc(/C=C/c2ccccc2Cl)nn1-c1ccccc1 | 5.1 µM |
| Oc1ccc(Cl)cc1-c1cc(/C=C/c2ccc(Cl)cc2)nn1-c1ccccc1 | 6.5 µM |
| Oc1ccccc1-c1cc(/C=C/c2cccc(Cl)c2)nn1-c1ccccc1 | 8.9 µM |
| Oc1ccccc1-c1cc(/C=C/c2ccc(Cl)cc2)nn1-c1ccccc1 | 13.4 µM |

Test system: HT-1080
Experiment: Cytotoxicity against human HT-1080 cells assessed inhibition of cell growth incubated for 72 hrs by MTT assay
Assay type: functional, cell-based
Conditions: HT-1080, 72 h

| Compound | IC50 |
| --- | --- |
| Oc1ccc(Cl)cc1-c1cc(/C=C/c2ccccc2Cl)nn1-c1ccccc1 | 10.9 µM |
| Oc1ccc(Cl)cc1-c1cc(/C=C/c2ccc(Cl)cc2)nn1-c1ccccc1 | 17.4 µM |
| Oc1ccccc1-c1cc(/C=C/c2cccc(Cl)c2)nn1-c1ccccc1 | 13.8 µM |
| Oc1ccccc1-c1cc(/C=C/c2ccc(Cl)cc2)nn1-c1ccccc1 | 15.8 µM |

Test system: MCF7
Experiment: Cytotoxicity against human MCF7 cells assessed inhibition of cell growth incubated for 72 hrs by MTT assay
Assay type: functional, cell-based
Conditions: MCF7, 72 h

| Compound | IC50 |
| --- | --- |
| Oc1ccc(Cl)cc1-c1cc(/C=C/c2ccccc2Cl)nn1-c1ccccc1 | 5.7 µM |
| Oc1ccc(Cl)cc1-c1cc(/C=C/c2ccc(Cl)cc2)nn1-c1ccccc1 | 10.6 µM |
| Oc1ccccc1-c1cc(/C=C/c2cccc(Cl)c2)nn1-c1ccccc1 | 10.9 µM |
| Oc1ccccc1-c1cc(/C=C/c2ccc(Cl)cc2)nn1-c1ccccc1 | 15.2 µM |

Test system: not listed separately
Experiment: Cytotoxicity against human NHDF cells assessed inhibition of cell growth incubated for 72 hrs by MTT assay
Assay type: toxicity, cell-based
Conditions: not given

| Compound | IC50 at 72 h |
| --- | --- |
| Oc1ccc(Cl)cc1-c1cc(/C=C/c2ccccc2Cl)nn1-c1ccccc1 | 19.7 µM |
| Oc1ccc(Cl)cc1-c1cc(/C=C/c2ccc(Cl)cc2)nn1-c1ccccc1 | 42.9 µM |
| Oc1ccccc1-c1cc(/C=C/c2cccc(Cl)c2)nn1-c1ccccc1 | 39.4 µM |
| Oc1ccccc1-c1cc(/C=C/c2ccc(Cl)cc2)nn1-c1ccccc1 | 40.5 µM |

Test system: not listed separately
Experiment: Selectivity index, ratio of IC50 for cytotoxicity against human NHDF cells to IC50 for cytotoxicity against human SW620 cells
Conditions: not given

| Compound | Ratio IC50 |
| --- | --- |
| Oc1ccc(Cl)cc1-c1cc(/C=C/c2ccccc2Cl)nn1-c1ccccc1 | 1.5 |
| Oc1ccc(Cl)cc1-c1cc(/C=C/c2ccc(Cl)cc2)nn1-c1ccccc1 | 2 |
| Oc1ccccc1-c1cc(/C=C/c2cccc(Cl)c2)nn1-c1ccccc1 | 1.6 |
| Oc1ccccc1-c1cc(/C=C/c2ccc(Cl)cc2)nn1-c1ccccc1 | 1.5 |

Test system: not listed separately
Experiment: Selectivity index, ratio of IC50 for cytotoxicity against human NHDF cells to IC50 for cytotoxicity against human A549 cells
Assay type: toxicity, cell-based
Conditions: NHDF cells and A549 cells, read-out: Ratio IC50

| Compound | selectivity ratio |
| --- | --- |
| Oc1ccc(Cl)cc1-c1cc(/C=C/c2ccccc2Cl)nn1-c1ccccc1 | 1.5 |
| Oc1ccc(Cl)cc1-c1cc(/C=C/c2ccc(Cl)cc2)nn1-c1ccccc1 | 2 |
| Oc1ccccc1-c1cc(/C=C/c2cccc(Cl)c2)nn1-c1ccccc1 | 1.6 |
| Oc1ccccc1-c1cc(/C=C/c2ccc(Cl)cc2)nn1-c1ccccc1 | 1.5 |

Test system: not listed separately
Experiment: Selectivity index, ratio of IC50 for cytotoxicity against human NHDF cells to IC50 for cytotoxicity against human EJ-28 cells
Conditions: not given

| Compound | Ratio IC50 |
| --- | --- |
| Oc1ccc(Cl)cc1-c1cc(/C=C/c2ccccc2Cl)nn1-c1ccccc1 | 1.5 |
| Oc1ccc(Cl)cc1-c1cc(/C=C/c2ccc(Cl)cc2)nn1-c1ccccc1 | 2 |
| Oc1ccccc1-c1cc(/C=C/c2cccc(Cl)c2)nn1-c1ccccc1 | 1.6 |
| Oc1ccccc1-c1cc(/C=C/c2ccc(Cl)cc2)nn1-c1ccccc1 | 1.5 |

Test system: not listed separately
Experiment: Selectivity index, ratio of IC50 for cytotoxicity against human NHDF cells to IC50 for cytotoxicity against human HT-1080 cells
Conditions: not given

| Compound | Ratio IC50 |
| --- | --- |
| Oc1ccc(Cl)cc1-c1cc(/C=C/c2ccccc2Cl)nn1-c1ccccc1 | 0.9 |
| Oc1ccc(Cl)cc1-c1cc(/C=C/c2ccc(Cl)cc2)nn1-c1ccccc1 | 2 |
| Oc1ccccc1-c1cc(/C=C/c2cccc(Cl)c2)nn1-c1ccccc1 | 1.6 |
| Oc1ccccc1-c1cc(/C=C/c2ccc(Cl)cc2)nn1-c1ccccc1 | 1.5 |

Test system: not listed separately
Experiment: Selectivity index, ratio of IC50 for cytotoxicity against human NHDF cells to IC50 for cytotoxicity against human MCF7 cells
Assay type: toxicity, cell-based
Conditions: NHDF cells and MCF7 cells, read-out: Ratio IC50

| Compound | selectivity ratio |
| --- | --- |
| Oc1ccc(Cl)cc1-c1cc(/C=C/c2ccccc2Cl)nn1-c1ccccc1 | 0.9 |
| Oc1ccc(Cl)cc1-c1cc(/C=C/c2ccc(Cl)cc2)nn1-c1ccccc1 | 2 |
| Oc1ccccc1-c1cc(/C=C/c2cccc(Cl)c2)nn1-c1ccccc1 | 1.6 |
| Oc1ccccc1-c1cc(/C=C/c2ccc(Cl)cc2)nn1-c1ccccc1 | 1.5 |
